The term IC50 denotes the concentration needed to halve the response being measured.

A short description of data set [1]: Solubility measurement in various solvents (excess compound, 72 h shaking). The class given is physicochemical. The conditions noted are these: for solubility in PB (pH 7.4): phosphate buffer pH 7.4. The method, then: The solubility of 2-amino-4-aryl-6-substituted pyridine-3,5-dicarbonitrile derivatives (S1–S4) in various solvents (methanol, ethanol, phosphate buffer, and water) was determined by adding an excess amount of each compound to 10 mL of each solvent in a sealed conical flask. The slurry was then agitated at 100 rpm in a temperature-controlled incubator shaker for 72 h to reach equilibrium. The undissolved particles were allowed to settle by keeping the saturated solution without agitation for another 2 h. The solution was then centrifuged at 10,000 rpm for 10 min. One mL samples of the clear supernatant was withdrawn, diluted with the suitable solvent, and finally analyzed spectrophotometrically at pre-determined wavelengths (Table S1).

The test system of another data set is MCF-7 cells. Put plainly: In vitro cytotoxicity, MTT assay. The class given is cell-based, human. The conditions noted are these: 48 h, read-out: IC50 against MCF-7. The protocol: (§1) A human lung cancer (A549) cell line, human breast adenocarcinoma (MCF-7), and normal MCF-10A human […] were obtained from VASCERA Co. (Vaccines Sera and Drugs; Cairo, Egypt). […] were cultured in Dulbecco’s modified Eagle’s medium (DMEM, Biowest, Nuaillé, France) supplemented with 10% fetal bovine serum, 100 U/mL penicillin/100 μg/mL streptomycin, and incubated under standard conditions (37 °C, 5% CO2).
(§2) The in vitro cytotoxicities of various pyridine derivatives loaded into LPNCs against A549 cells and MCF-7 cells were evaluated by the MTT assay. Briefly, 100 μL cell suspension equivalent to 1 × 10^4 cells/well was planted in a 96-well plate and incubated at 37 °C. At 24 h post-incubation, the cells were treated with 100 μL of serial dilutions of either free pyridine derivatives (S1–S4) or pyridine derivatives (S1–S4)-loaded LPNCs in a concentration range of 0.1 to 100 μM. The cells were further incubated at 37 °C for 48 h. The spent culture medium was then decanted, the cells were rinsed, 50 μL of MTT reagent (0.5 mg/mL) was added to each well, and the cells were incubated for 4 h at 37 °C. Finally, to dissolve the formazan crystals, DMSO solution (150 μL) was added to each well. The absorbance of each well was measured at 570 nm using a microplate reader (TEKAN Japan, Kawasaki, Japan). The percent cell viability was plotted against the tested compound concentration to determine the IC50 values.
In general terms: Formazan colour is commonly taken as a measure of viable cells.

For another data set, the system named is A549 cells. The data set is described as follows: In vitro cytotoxicity, MTT assay. The class given is cell-based, human. The conditions noted are these: 48 h, read-out: IC50 against A549. The protocol:
as §1, §2

In data set [2] the test system is Ehrlich ascites carcinoma (EAC) solid tumor. The data set is described as follows: Histopathological examination of solid tumors (H&E). The conditions noted are these: 10 mg/kg. The class given is in vivo, mice. The method, then: On the last day of the experiment, solid tumors were dissected from all mice and were fixed […] in formalin-alcohol for 48 h, dehydrated in an alcohol series, cleared in xylene, and embedded in paraffin. Sections (4–5 μm in thickness) were stained with hematoxylin and eosin (H&E). Slides were then imaged using a Universal Infinity System optical microscope (Olympus®, Tokyo, Japan) equipped with a computer-controlled digital camera. A histopathological analysis of the tumor sections was focused on finding a typical mitotic picture, neoplastic giant cells, and the extension of the necrotic area. Histopathological examinations were evaluated in a blinded way by a pathologist.

A short description of data set [3]: Biochemical analysis of liver and kidney functions in serum. The class given is in vivo. The conditions noted are these: EAC-bearing mice, 10 mg/kg i.p., last day of experiment. The protocol:
On the last day of the experiment, 4 out 8 mice were euthanized, and blood samples were collected by cardiac puncture in dry Eppendorf tubes. Blood samples were set aside for 30 min at room temperature and the tubes were then centrifuged for 15 min at 2000× g to obtain serum. To assess possible hepatic damage, aspartate transaminase (AST) and alanine transaminase (ALT) activities in serum samples were assayed by using a commercial kit (Biodiagnostic, Cairo, Egypt) according to the method of Reitman and Frankel. In addition, serum creatinine level was quantified as an indicator for possible renal damage. The level of serum creatinine was analyzed by using a commercial kit that was purchased from Biodiagnostic (Cairo, Egypt) according to manufacturer instructions.

Data set [4] concerns Ehrlich ascites carcinoma (EAC) solid tumor. The data set is described as follows: In vivo antitumor activity in EAC solid tumor-bearing mice. The conditions noted are these: 10 mg/kg i.p. every other day for 21 days. The protocol: Ehrlich ascites carcinoma (EAC) cells (1 × 10^6 cells) obtained from the National Cancer Institute (Cairo, Egypt) were injected intraperitoneally into the peritoneal cavity of Swiss Albino mice. On day 7 post tumor cell inoculation, ascites fluid was collected. EAC was diluted with saline to obtain a cell density of 25 × 10^6 cells/mL. Then, 200 μL of the cells were injected subcutaneously in the mice’s right flanks. Tumor growth was monitored post-inoculation, and the size of the tumor was measured with a Vernier caliper. Treatment protocols were initiated on day 8 post tumor inoculation, when the tumor was palpable. […]
The dose and route of administration of the test compound and the treatment regimen were established based on previously published reports. The antitumor efficacy of different treatment protocols was evaluated in terms of tumor size, percentage tumor growth inhibition (% TGI), median survival time (MST), and percentage increase in life span (% ILS) using the following equations [31, 32]:Tumor size (mm^3) = ½ (Length × Width^2) % TGI=1−Mean tumor volume of treated group/Mean tumor volume in control group×100 MST = (day of first death + day of last death)/2 %ILS=MSTtreated group/MSTcontrol group−1×100
In addition, body weight was assessed concurrently to determine any remarkable systemic toxicity.

Data set [5] deals with Swiss Albino mice. The data set is described as follows: Acute toxicity study, single i.p. dose. The class given is in vivo. The protocol: Acute toxicity studies are carried out in order to evaluate the short-term negative effects of a test compound when administered in a single dose during a period of 24 h. Briefly, the maximum tolerated dose (100 mg/kg) of the test compound (S4), dissolved in 3% dimethyl sulfoxide, was injected intraperitoneally in a group of mice (n = 5). A control group (n = 5) was i.p. injected with an equivalent volume of 3% dimethyl sulfoxide. The mice were then observed for general behavior for 1 h post-treatment and then intermittently for 4 h and finally at 24 h. The mice were then monitored for up to 14 days after treatment for symptoms of toxicity or mortalities.

Data set [6] concerns Swiss Albino mice. Put plainly: Median lethal dose (LD50), single i.p. injection. The conditions noted are these: for Number of animal dead: n=5, 24 h. The class given is in vivo. The protocol: The median lethal dose (LD50) test was performed to determine the dose of a test substance that elicits 50% death in mice. Briefly, a total of 30 mice were categorized into 6 groups (n = 5). Each group was dosed with a single intraperitoneal injection of the test compound (S4) dissolved in 3% dimethyl sulfoxide. The screened doses ranged from 100 to 180 mg/kg. The animals were then monitored for 2 h and then at 4, 6, and 24 h for signs of toxicity. At the end of 24 h, the total number of deaths was recorded. The LD50 was then calculated using the following equation [27]: LD50=LD100−{Σ[Dose difference×Mean dead]}/Number of animals per group where LD100 is the lowest dose capable of killing 100% of animals.

Structures are written as SMILES. In brackets after ≈: the same amount, converted by molar mass. Where only a bound is given, the exact number is not on record here.

With `Cc1ccc(Nc2nc(N)c(C#N)c(-c3ccccc3)c2C#N)cc1` [Compound S2], in data set [1], the solubility in ethanol was 13.82 ± 0.326 mg/mL (≈ 42.5 mM), the solubility in methanol stood at 25.71 ± 0.323 mg/mL (≈ 79 mM), the “solubility in PB (pH 7.4)” value was 1.63 ± 0.005 mg/ml and the solubility in water is 1.25 ± 0.006 mg/mL (≈ 3.84 mM). The IC50 in the data set on MCF-7 cells is greater than 100 µM. Besides, in the data set with A549 cells, the IC50 was greater than 100 µM.

`N#Cc1c(N)nc(N)c(C#N)c1-c1ccccc1` [Compound S3]: in data set [1], the solubility in ethanol amounted to 18.86 ± 0.225 mg/mL (≈ 80.2 mM), the solubility in methanol turned out to be 35.36 ± 0.203 mg/mL (≈ 150 mM), the “solubility in PB (pH 7.4)” value is recorded as 0.59 ± 0.010 mg/ml and the solubility in water was found to be 0.99 ± 0.007 mg/mL (≈ 4.21 mM). Also, in the data set on MCF-7 cells, the IC50 is greater than 100 µM. In the data set on A549 cells, the 50% inhibitory concentration (IC50) is greater than 100 µM.

For the compound `CCNc1nc(N)c(C#N)c(-c2ccccc2)c1C#N` [Compound S1], in data set [1], the solubility in ethanol was found to be 5.98 ± 0.230 mg/mL (≈ 22.7 mM), the solubility in methanol was 21.76 ± 0.260 mg/mL (≈ 82.6 mM) and the solubility in water was found to be 0.57 ± 0.021 mg/mL (≈ 2.16 mM). The IC50 with MCF-7 cells was greater than 100 µM. In the data set on A549 cells, the IC50 was greater than 100 µM.

Take `O=c1[nH]cc(F)c(=O)[nH]1` [Compound 5-FU, 5-fluorouracil, reference compound]: the tumor section histology result in data set [2] is “loss of cellular architecture and tumor tissue compactness”. In data set [3], this compound gave an ALT of 51.87 ± 1.29 IU/L, an AST of 74.23 ± 3.84 IU/L and a Creatinine of 1.05 ± 0.15 mg/dL. Moreover, the “tumor growth inhibition rate (TGI (%))” value in data set [4] is given as 86.81%.

In the case of `N#Cc1c(N)nc(Nc2ccccc2)c(C#N)c1-c1ccccc1` [Compound S4], the tumor section histology result in data set [2] is “loss of cellular architecture and tumor tissue compactness”. The same compound returned a maximum tolerated dose in the data set with Swiss Albino mice [5] (mice, i.p.) of 100 mg/kg. In addition, the acute toxicity observations entry in the data set with Swiss Albino mice [5] (up to 100 mg/kg i.p., monitored up to 14 days) is listed as “no behavioral abnormalities, toxicity symptoms, or mortalities were detected”. Moreover, in data set [3], the ALT is 20.50 ± 1.28 IU/L, the AST is recorded as 36.66 ± 1.87 IU/L and the Creatinine was determined as 0.54 ± 0.02 mg/dL. Further, the “tumor growth inhibition rate (TGI (%))” value in data set [4] was found to be 73.42%. Besides, in the data set with Swiss Albino mice [6] (100 mg/kg i.p.), the “lethality and signs of toxicity” value was “not lethal but only induced drowsiness”; the “Number of animal dead” value is given as 0. Further, the lethality entry in the data set with Swiss Albino mice [6] (120 mg/kg and higher, i.p.) was “lethal to animals”. Also, in the data set on Swiss Albino mice [6] (120 mg/kg i.p.), the “Number of animal dead” value stood at 5. In addition, in the data set on Swiss Albino mice [6] (140 mg/kg i.p.), the “Number of animal dead” value is on record as 5. For the same compound, the “Number of animal dead” value in the data set on Swiss Albino mice [6] (160 mg/kg i.p.) was determined as 5. Also, the “Number of animal dead” value with Swiss Albino mice [6] (180 mg/kg i.p.) stood at 5. Further, in data set [1], the solubility in ethanol is 18.56 ± 0.337 mg/mL (≈ 59.6 mM), the solubility in methanol turned out to be 16.57 ± 0.315 mg/mL (≈ 53.2 mM), the “solubility in PB (pH 7.4)” value worked out at 0.59 ± 0.001 mg/ml and the solubility in water was found to be 0.58 ± 0.002 mg/mL (≈ 1.86 mM). The IC50 with MCF-7 cells is greater than 100 µM. Also, the IC50 in the data set with A549 cells was greater than 100 µM.

The values above are taken from paper PMC10304225, “In Vitro Cytotoxicity and In Vivo Antitumor Activity of Lipid Nanocapsules Loaded with Novel Pyridine Derivatives” (Pharmaceutics, 2023).
